Results from the NIST ThermoML archive (doi:10.1021/acs.jced.8b00132).
Where “and” joins values, the source holds several entries; their conditions need not be identical. Equal entries are not always repeated.

Settings: Liquid, transient hot wire

O=C(C(F)(F)C(F)(F)F)C(F)(C(F)(F)F)C(F)(F)F [dodecafluoro-2-methylpentan-3-one]
Settings	thermal conductivity
212.68 K, 43023 kPa	0.08262 W/m/K
212.69 K, 34811 kPa	0.08103 W/m/K
212.7 K, 26854 kPa	0.0791 W/m/K
212.7 K, 34796 kPa	0.08096 W/m/K
212.71 K, 19432 kPa	0.07795 W/m/K
212.71 K, 26846 kPa	0.07958 W/m/K
212.72 K, 19443 kPa	0.07837 W/m/K
212.73 K, 12670 kPa	0.07626 W/m/K
212.73 K, 12671 kPa	0.0764 W/m/K
212.75 K, 5793 kPa	0.07492 W/m/K
212.75 K, 5801 kPa	0.0748 W/m/K
212.77 K, 172 kPa	0.07396 W/m/K
212.79 K, 181 kPa	0.07378 W/m/K
213.1 K, 67106 kPa	0.08599 W/m/K and 0.08628 W/m/K
213.11 K, 60772 kPa	0.08539 W/m/K
213.11 K, 60780 kPa	0.08539 W/m/K
213.13 K, 52081 kPa	0.08389 W/m/K
213.13 K, 52089 kPa	0.08383 W/m/K
213.19 K, 43027 kPa	0.08245 W/m/K
213.19 K, 43036 kPa	0.08268 W/m/K
213.21 K, 34805 kPa	0.08073 W/m/K
213.21 K, 34810 kPa	0.08114 W/m/K
213.23 K, 26845 kPa	0.07947 W/m/K
213.24 K, 26846 kPa	0.07959 W/m/K
213.25 K, 19430 kPa	0.07775 W/m/K
213.25 K, 19435 kPa	0.0774 W/m/K
213.27 K, 12661 kPa	0.07617 W/m/K
213.28 K, 12679 kPa	0.0761 W/m/K
213.31 K, 5806 kPa	0.07469 W/m/K
213.31 K, 5813 kPa	0.07468 W/m/K
213.33 K, 173 kPa	0.07373 W/m/K
213.33 K, 180 kPa	0.07364 W/m/K
213.62 K, 67087 kPa	0.08645 W/m/K
213.63 K, 67097 kPa	0.08628 W/m/K
213.64 K, 60766 kPa	0.08543 W/m/K
213.65 K, 60770 kPa	0.08553 W/m/K
213.67 K, 52073 kPa	0.08388 W/m/K
213.67 K, 52074 kPa	0.08401 W/m/K
213.74 K, 43029 kPa	0.08234 W/m/K
213.75 K, 43019 kPa	0.08232 W/m/K
241.26 K, 25699 kPa	0.0759 W/m/K
241.27 K, 25696 kPa	0.07599 W/m/K
241.32 K, 12027 kPa	0.07227 W/m/K and 0.07234 W/m/K
241.33 K, 18761 kPa	0.07423 W/m/K
241.33 K, 18763 kPa	0.0739 W/m/K
241.38 K, 209 kPa	0.06892 W/m/K and 0.06884 W/m/K
241.39 K, 5841 kPa	0.07049 W/m/K
241.39 K, 5844 kPa	0.07044 W/m/K
241.62 K, 33678 kPa	0.07765 W/m/K
241.63 K, 33700 kPa	0.07761 W/m/K
241.64 K, 41986 kPa	0.0795 W/m/K
241.65 K, 41994 kPa	0.07941 W/m/K
241.65 K, 50824 kPa	0.0813 W/m/K
241.65 K, 50825 kPa	0.08126 W/m/K
241.66 K, 60321 kPa	0.08312 W/m/K
241.66 K, 60336 kPa	0.08322 W/m/K
241.67 K, 25701 kPa	0.07567 W/m/K
241.68 K, 25692 kPa	0.0752 W/m/K
241.68 K, 68451 kPa	0.08416 W/m/K
241.68 K, 68475 kPa	0.0844 W/m/K
241.74 K, 18761 kPa	0.07395 W/m/K
241.75 K, 12028 kPa	0.07237 W/m/K
241.75 K, 18761 kPa	0.07396 W/m/K
241.76 K, 12022 kPa	0.07209 W/m/K
241.83 K, 210 kPa	0.06806 W/m/K
241.83 K, 5847 kPa	0.06983 W/m/K
241.84 K, 211 kPa	0.06786 W/m/K
241.84 K, 5846 kPa	0.07 W/m/K
242.08 K, 33680 kPa	0.0771 W/m/K
242.08 K, 60313 kPa	0.08307 W/m/K
242.09 K, 33695 kPa	0.07709 W/m/K
242.09 K, 41985 kPa	0.07857 W/m/K
242.09 K, 50804 kPa	0.081 W/m/K
242.09 K, 50825 kPa	0.08098 W/m/K
242.1 K, 41988 kPa	0.07839 W/m/K
242.1 K, 60314 kPa	0.08294 W/m/K
242.1 K, 68448 kPa	0.08374 W/m/K
242.11 K, 68433 kPa	0.08377 W/m/K
242.14 K, 25700 kPa	0.07474 W/m/K
242.14 K, 25703 kPa	0.07481 W/m/K
242.23 K, 18760 kPa	0.07343 W/m/K
242.23 K, 18761 kPa	0.07341 W/m/K
242.24 K, 12027 kPa	0.07149 W/m/K
242.24 K, 12030 kPa	0.07138 W/m/K
